Measurements published in US7604982B2, “High-throughput screening method for intergrin antagonist and new peptide screened therefrom” (Proteogen Inc., priority 2003, dated 2009).
Residues, ends and D or L forms follow the SMILES beside them.

B1: recombinant human endostatin: recombinant human endostatin interacting with endothelial alpha(5) and alpha(v)-integrin (protein, UniProt P39060 1572-1754, looked up)
Endostatin: HSHRDFQPVLHLVALNSPLSGGMRGIRGADFQCFQQARAVGLAGTFRAFLSSRLQDLYSIVRRADRAAVPIVNLKDELLFPSWEALFSGSEGPLKPGARIFSFDGKDVLRHPTWPQKSVWHGSDPNGRRLTESYCETWRTEAPSATGQASSLLGGRLLGQSAASCHHAYIVLCIENSFMTASK
modifications: Endostatin

Tests used:
[1] = test system: human malignant melanoma; details: cited from earlier work
[2] = biological target: T1, integrin αvβ3-vitronectin interaction (Homo sapiens, UniProt P05106+P06756); experiment: Competitive inhibition of integrin αvβ3-vitronectin interaction on integrin microarray (ProteoChip); format: binding; details: for IC50: half-maximal inhibition concentration relative to control without peptides, ND means no activity was detected; for inhibition of integrin αvβ3-vitronectin interaction (relative fluorescence intensity): vitronectin 100 ng/ml labeled with Cy-3, colour scale white highest, blue lowest
T1 construct: purchased Chemicon International, Inc. (CA, USA)
Text: ProteoChip™ (Proteogen, Inc., Seoul, South Korea) was used as a protein chip and integrins were spotted on the ProteoChip™ (Proteogen, Inc., Seoul, South Korea) with the microarrayer (CM-1000; Proteogen, Inc., Seoul, South Korea) to fabricate integrin receptor microarray (See Lee, Y. S. et al.: ProteoChip: a highly sensitive protein microarray proposed by a novel method of protein immobilization for application of protein-protein interaction studies, Proteomics 2003; 3: 2289-2304). Integrin α11bβ3 was purified to homogeneity by GRGDSPK-Sepharose column chromatography from the platelet (See Kang I. C. and Kim D. S., Analysis of potent glycoprotein IIb-IIIa antagonist from natural sources. J Biochem Mol Biol 1998; 31: 515-518), and Integrin αvβ3 was commercially obtained from Chemicon International, Inc. (CA, USA).
Integrins (40 μg/mL) diluted with a phosphate-buffered saline (PBS) solution containing 10 mM β-octylthioglucopyranoside, 1.0 mM CaCl2, 11.0 mM MgCl2, and 30% glycerol were spotted and incubated at 37° C. for 3 hours, and then the remaining integrins after binding were washed with 0.5% PBST (PBS containing 0.5% Tween-20). The prepared integrin microarray was stored at 4° C. until before use. This integrin microarray (integrin-binding protein chip) was used for high-throughput screening of integrin receptor antagonist (See FIG. 1).
Mixtures of ligand protein (vitronectin 100 ng/ml) labeled with fluorescence (Cy-3) and known integrin antagonists such as disintegrins (echistatin 250 μg/ml, flavoridin 250 μg/ml, kistrin 250 μg/ml, and salmosin 2.6 ng/ml), a monoclonal antibody (mAb) against integrin 11.0 mg/ml, and various concentrations of synthetic RGD peptides (echistatin, flavoridin, kistrin: Sigma-Aldrich, USA; Salmosin: isolated and purified from recombinant E. Coli; monoclonal antibody against integrin: Chemicon International, Inc., USA; synthetic ROD peptides: synthesized in the Korea Research Institute of Bioscience and Biotechnology, South Korea) were dropped on the integrin receptor of the integrin αvβ3-binding protein chip prepared in Example 1 by using micropipette or microarrayer (CM-1000; Proteogen, Inc., Seoul, South Korea) and then were reacted in a oven of 37° C. and over 75% humidity for 4-12 hours. After reaction, those were washed for about 10 minutes with 0.5% PBST containing 3% BSA. Competitive inhibitory abilities of antagonists were measured by analyzing the degree of ligand binding as relative fluorescence intensity with a fluorescence scanner.
Antagonists used in FIG. 4 are already known as antagonistic material of integrin αvβ3-vitronectin. This is also a result analyzing whether mixing antagonists and vitronectin labeled with fluorescence inhibit or not the interaction between integrin αvβ3 and vitronectin. Control are the group having only vitronectin labeled with fluorescence without antagonists and the other groups are the results performed with antagonists and peptides including the amino acid sequence of RGE. The fluorescence intensity in FIG. 4 is expressed as rainbow colors like the explanation of FIG. 3. […] However, in case of groups having antagonists, antagonists inhibited the interaction between integrin αvβ3 and vitronectin, that is, integrin αvβ3 didn't bind to vitronectin, which made the color of fluorescence blue, the lowest color.
Mixtures of ligand protein (Fibrinogen 100 ng/ml and vitronectin 100 ng/ml) labeled with fluorescence (Cy-3) and 114 peptide pools from peptide library were dropped on the integrin receptor of integrin αvβ3-binding protein chip prepared in Example 1 by using micropipette or microarrayer (CM-1000; Proteogen, Inc., Seoul, South Korea) and then were reacted in oven of 37° C. and over 75% humidity for 4-12 hours. After reaction, those were washed for about 10 minutes with 0.5% PBST containing 3% BSA. […]

[3] = test system: angiogenesis in chick chorioallantoic membrane; experiment: Inhibition assay of angiogenesis in a chick chorioallantoic membrane; format: in vivo; details: in the presence of bFGF, FIG. 10
Procedure: FIG. 10 is the result of analyzing effects of antagonistic peptides of integrin αvβ3 on angiogenesis in a chick chorioallantoic membrane. In vivo angiogenesis inhibition test was performed as one of biological characterization researches of the antagonistic peptides. A, positive control, is the result of the group treated with only bFGF without peptide; B, negative control, is the result of the group having only cells without bFGF; C is the result of the group treated with GRGDSP peptide in the presence of bFGF; D is the result of the group treated with HGDVHK peptide in the presence of bFGF; E is the result of the group treated with HSDVHK peptide in the presence of bFGF; and F is the result of the group treated with HHDVHK peptide in the presence of bFGF.
Fertilized eggs was purchased from Pulmuone Corp. (South Korea), Thermanox coverslips for sample loading was purchased from Nunc Company (USA), and 10% Intralipose (fat emulsion) for observation and syringes were purchased from Green Cross Company (South Korea).
On day 1 (0-day embryo): Fertilized egg was incubated in a incubator of 37-38° C. and over 90% humidity. The temperature and humidity were often checked to make sure the above conditions.
On day 3 (2-day embryo): The peaked end of fertilized egg was cracked with a knife. […] The pore was sealed with transparent tape to block infection and dryness of the fertilized egg. The egg was incubated again with the direction of pore toward the bottom.
On day 4 (3-day embryo): The window which diameter is 2-3 cm was made in the direction of air sac of fertilized egg (in the opposite direction of the above syringe pore) and the eggs confirmed as fertilized egg were sealed with broad transparent tape and incubated again. For reference, round window was made as follows. A round shape of scratch was made on the eggshell with a sharp knife and eggshell then was taken away with a pincette.
On day 5 (4.5-day embryo): CAM is usually created at this time and the diameter is about 2-5 mm. […]

[4] = test system: human umverical vein endothelial cell (HUVEC); experiment: HUVEC migration assay (Boyden chamber, bFGF chemoattractant); format: cell-based; details: bFGF-induced, 4 hours at 37° C., FIG. 9
Procedure: HUVE cell was cultured in M199 medium containing 10% fetal calf serum and 3 ng/ml bFGF. This cell was cultured in the control medium (M199 containing 0.1% BSA) for 16 hours to be used in migration assay, and then 3×10^4 cells were added to upper chamber of porous membrane coated with gelatin (40 μM) and inserted in Boyden chamber. Samples were treated at the same time in a concentration-dependent manner. Chemoattractant, bFGF, was added in the bottom chamber to induce HUVE cell to migrate into lower chamber. The chamber was incubated for 4 hours at 37° C. and then the membrane was removed. After fixation, cell was stained with crystal violet and cells migrating across the membrane were counted with a microscope.

[5] = test system: Lewis lung carcinomas cells; experiment: Growth inhibition assay of subcutaneous solid tumor; format: in vivo, C57BL/6 mice; details: 100 mg/kg mouse, subcutaneous injection once daily, FIGS. 11-13
Procedure: Lewis lung carcinomas cells (1×10^6) were injected subcutaneously into dorsal midline of C57BL/6 mice. When tumors were 100-200 mm^3 in volume, the mice were randomized into three groups. Two groups received HGDVHK or HSDVHK (100 mg/kg mouse), respectively, in PBS via subcutaneous injection at a site distant from the tumor once daily. […] The sizes of the tumors in all groups were measured at the same time everyday. The experiments were terminated when the control mice began to die.

[6] = test system: blood endothelial alpha(5) and alpha(v)-integrin; details: endothelial cell migration; cited from earlier work

Molecule | IC50 [2] [pM] | inhibitory effect on CAM angiogenesis [3] | inhibition of HUVEC migration [4] | inhibition of integrin αvβ3-vitronectin interaction (relative fluorescence intensity) [2] | also measured
CC(C)[C@H]1C(=O)N[C@@H](CCCN=C(N)N)C(=O)NCC(=O)N[C@@H](CC(=O)O)C(=O)N[C@H](Cc2ccccc2)C(=O)N1C [EMD121974] | – | – | – | – | angiogenesis inhibition and cancer growth suppression in animal test [1]: activity inhibiting angiogenesis and thus suppressing cancer growth
CC(C)C[C@H](NC(=O)[C@H](CC(=O)O)NC(=O)CNC(=O)[C@@H](N)Cc1c[nH]cn1)C(=O)N[C@@H](Cc1c[nH]cn1)C(=O)N[C@@H](CCCCN)C(N)=O [HGDLHK-NH2] (H-HGDLHK-NH2; N-terminus assumed) | 43.6 | – | – | – | –
CC(C)[C@H](NC(=O)[C@H](CC(=O)O)NC(=O)CNC(=O)[C@@H](N)Cc1c[nH]cn1)C(=O)N[C@@H](Cc1c[nH]cn1)C(=O)N[C@@H](CCCCN)C(N)=O [HGDVHK-NH2] (H-HGDVHK-NH2; N-terminus assumed) | 64.7 | showed different inhibitory effects | significantly inhibited | stronger inhibitory activity in integrin αvβ3-specific inhibitory test than GRGDSP | –
CC(C)C[C@H](NC(=O)CNC(=O)[C@@H](N)Cc1c[nH]cn1)C(=O)N[C@H](C(=O)N[C@@H](Cc1c[nH]cn1)C(=O)N[C@@H](CCCCN)C(N)=O)C(C)C [HGLVHK-NH2] (H-HGLVHK-NH2; N-terminus assumed) | 3.53 | – | – | – | –
CC(C)C[C@H](NC(=O)[C@H](CC(C)C)NC(=O)[C@H](Cc1c[nH]cn1)NC(=O)[C@@H](N)Cc1c[nH]cn1)C(=O)N[C@@H](Cc1c[nH]cn1)C(=O)N[C@@H](CCCCN)C(N)=O [HHLLHK-NH2] (H-HHLLHK-NH2; N-terminus assumed) | 4.34 | – | – | – | –
CC(C)C[C@H](NC(=O)[C@H](Cc1c[nH]cn1)NC(=O)[C@@H](N)Cc1c[nH]cn1)C(=O)N[C@H](C(=O)N[C@@H](Cc1c[nH]cn1)C(=O)N[C@@H](CCCCN)C(N)=O)C(C)C [HHLVHK-NH2] (H-HHLVHK-NH2; N-terminus assumed) | 407 | – | – | – | –
CC(C)[C@H](NC(=O)[C@H](CC(=O)O)NC(=O)[C@H](CO)NC(=O)[C@@H](N)Cc1c[nH]cn1)C(=O)N[C@@H](Cc1c[nH]cn1)C(=O)N[C@@H](CCCCN)C(N)=O [HSDVHK-NH2] (H-HSDVHK-NH2; N-terminus assumed) | 2.41 | showed different inhibitory effects | significantly inhibited | stronger inhibitory activity in integrin αvβ3-specific inhibitory test than GRGDSP | growth of solid tumor [5]: largely suppressed
CC(C)C[C@H](NC(=O)[C@H](CO)NC(=O)[C@@H](N)Cc1c[nH]cn1)C(=O)N[C@H](C(=O)N[C@@H](Cc1c[nH]cn1)C(=O)N[C@@H](CCCCN)C(N)=O)C(C)C [HSLVHK-NH2] (H-HSLVHK-NH2; N-terminus assumed) | 64 | – | – | – | –
HHDVHK [HHDVHK-NH2] | – | had little effect | had little effect | didn't reveal any inhibitory activity | –
B1 | – | – | – | – | inhibition of integrin-dependent endothelial function [6]: inhibit integrin-dependent endothelial function such as endothelial cell migration
